How the values were obtained:
[1] = biological target: Sigma intracellular receptor 2 (Homo sapiens, UniProt Q5BJF2); experiment: GPCRScan assay: inhibition of Sigma 2; set-up: radioligand conc. used [nm] 5.0, parental cells HEKT
[2] = biological target: Cyclin-G-associated kinase (Homo sapiens) (UniProt O14976); conditions: Compound concentration 1000.0 nM
[3] = biological target: Dual specificity tyrosine-phosphorylation-regulated kinase 2 (Homo sapiens) (UniProt Q92630); conditions: Compound concentration 1000.0 nM
[4] = biological target: Dual specificity mitogen-activated protein kinase kinase 1 (Homo sapiens) (UniProt Q02750); conditions: Compound concentration 1000.0 nM
[5] = biological target: Citron Rho-interacting kinase (Homo sapiens) (UniProt O14578); conditions: Compound concentration 1000.0 nM
[6] = biological target: Ribosomal protein S6 kinase alpha-3 (Homo sapiens) (UniProt P51812); conditions: Compound concentration 1000.0 nM
[7] = biological target: Sodium-dependent dopamine transporter (Homo sapiens) (UniProt Q01959); conditions: Compound concentration 10.0 uM
[8] = biological target: Mitogen-activated protein kinase kinase kinase 9 (Homo sapiens) (UniProt P80192); conditions: Compound concentration 1000.0 nM
Mitogen-activated protein kinase kinase kinase 9 (Homo sapiens), sequence (P80192 whole entry, looked up): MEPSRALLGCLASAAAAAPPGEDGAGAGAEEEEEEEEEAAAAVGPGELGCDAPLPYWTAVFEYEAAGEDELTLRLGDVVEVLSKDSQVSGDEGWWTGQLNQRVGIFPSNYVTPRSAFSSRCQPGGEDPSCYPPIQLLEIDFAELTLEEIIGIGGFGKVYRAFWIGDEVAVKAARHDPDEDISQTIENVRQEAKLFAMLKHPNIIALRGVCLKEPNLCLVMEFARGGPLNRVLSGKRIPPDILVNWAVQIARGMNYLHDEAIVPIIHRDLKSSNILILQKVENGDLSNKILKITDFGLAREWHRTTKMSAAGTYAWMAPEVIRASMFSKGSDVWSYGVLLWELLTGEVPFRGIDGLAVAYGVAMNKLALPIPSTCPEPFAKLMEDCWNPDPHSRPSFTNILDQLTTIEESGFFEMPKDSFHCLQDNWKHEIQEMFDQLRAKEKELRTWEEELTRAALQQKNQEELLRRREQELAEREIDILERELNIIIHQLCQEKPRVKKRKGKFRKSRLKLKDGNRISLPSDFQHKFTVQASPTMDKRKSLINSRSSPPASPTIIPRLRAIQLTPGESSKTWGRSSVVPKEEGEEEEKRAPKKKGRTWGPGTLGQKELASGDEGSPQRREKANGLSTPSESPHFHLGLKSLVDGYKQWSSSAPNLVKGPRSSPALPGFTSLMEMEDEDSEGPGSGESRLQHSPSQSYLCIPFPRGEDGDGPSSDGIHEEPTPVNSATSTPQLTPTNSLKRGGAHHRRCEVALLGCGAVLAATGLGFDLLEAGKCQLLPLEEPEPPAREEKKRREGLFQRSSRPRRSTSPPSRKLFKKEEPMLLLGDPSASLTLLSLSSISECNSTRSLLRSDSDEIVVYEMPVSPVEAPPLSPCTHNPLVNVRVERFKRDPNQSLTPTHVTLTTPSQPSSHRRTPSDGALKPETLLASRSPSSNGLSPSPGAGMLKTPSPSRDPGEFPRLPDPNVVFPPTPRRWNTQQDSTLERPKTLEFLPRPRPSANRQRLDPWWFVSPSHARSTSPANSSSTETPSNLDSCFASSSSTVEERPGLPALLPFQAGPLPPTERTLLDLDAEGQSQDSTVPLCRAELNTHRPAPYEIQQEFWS

[9] = biological target: Serine/threonine-protein kinase Nek11 (Homo sapiens) (UniProt Q8NG66); conditions: Compound concentration 1000.0 nM
[10] = biological target: Ribosomal protein S6 kinase alpha-4 (Homo sapiens) (UniProt O75676); conditions: Compound concentration 1000.0 nM
[11] = test system: Hepatocyte growth factor receptor (Homo sapiens), P08581 [M1250T]; conditions: Compound concentration 1000.0 nM
[12] = biological target: T1, Alpha-2B adrenergic receptor (Homo sapiens) (UniProt P18089); conditions: Compound concentration 10.0 uM
T1 sequence (whole entry): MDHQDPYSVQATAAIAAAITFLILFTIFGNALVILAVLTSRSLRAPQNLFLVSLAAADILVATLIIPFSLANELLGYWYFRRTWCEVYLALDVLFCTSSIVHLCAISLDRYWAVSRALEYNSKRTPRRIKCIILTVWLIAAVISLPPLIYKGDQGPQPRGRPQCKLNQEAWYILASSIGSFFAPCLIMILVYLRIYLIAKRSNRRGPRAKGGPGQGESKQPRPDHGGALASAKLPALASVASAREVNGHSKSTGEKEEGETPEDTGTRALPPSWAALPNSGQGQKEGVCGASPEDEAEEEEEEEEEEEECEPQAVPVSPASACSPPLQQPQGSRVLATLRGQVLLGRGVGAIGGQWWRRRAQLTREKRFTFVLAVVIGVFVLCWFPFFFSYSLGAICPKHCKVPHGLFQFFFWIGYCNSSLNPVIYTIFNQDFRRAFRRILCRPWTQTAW

[13] = biological target: Casein kinase I isoform alpha (Homo sapiens) (UniProt P48729); conditions: Compound concentration 1000.0 nM
[14] = biological target: Myosin light chain kinase, smooth muscle (Homo sapiens) (UniProt Q15746); conditions: Compound concentration 1000.0 nM
[15] = biological target: Ribosomal protein S6 kinase alpha-1 (Homo sapiens) (UniProt Q15418); conditions: Compound concentration 1000.0 nM
Ribosomal protein S6 kinase alpha-1 (Homo sapiens), sequence (Q15418 whole entry): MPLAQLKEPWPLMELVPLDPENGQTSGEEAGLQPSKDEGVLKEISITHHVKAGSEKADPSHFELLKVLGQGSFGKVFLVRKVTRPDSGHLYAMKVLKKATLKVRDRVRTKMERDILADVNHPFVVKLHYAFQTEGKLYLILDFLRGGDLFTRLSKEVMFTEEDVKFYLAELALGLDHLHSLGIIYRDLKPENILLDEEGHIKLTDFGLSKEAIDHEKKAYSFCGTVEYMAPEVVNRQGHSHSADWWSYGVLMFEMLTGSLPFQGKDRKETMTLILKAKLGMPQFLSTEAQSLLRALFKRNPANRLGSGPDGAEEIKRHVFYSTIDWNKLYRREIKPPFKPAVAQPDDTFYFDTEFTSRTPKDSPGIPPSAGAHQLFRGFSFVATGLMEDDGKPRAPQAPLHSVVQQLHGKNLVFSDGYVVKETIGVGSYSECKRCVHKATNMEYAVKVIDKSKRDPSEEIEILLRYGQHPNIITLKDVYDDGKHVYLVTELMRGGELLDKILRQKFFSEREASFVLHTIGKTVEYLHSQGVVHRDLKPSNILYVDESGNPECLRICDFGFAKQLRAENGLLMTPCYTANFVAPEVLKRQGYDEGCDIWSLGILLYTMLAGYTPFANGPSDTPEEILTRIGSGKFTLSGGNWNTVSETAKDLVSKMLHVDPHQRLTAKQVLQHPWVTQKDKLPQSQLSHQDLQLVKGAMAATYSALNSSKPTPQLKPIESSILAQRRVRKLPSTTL

[16] = biological target: Ephrin type-A receptor 4 (Homo sapiens) (UniProt P54764); conditions: Compound concentration 1000.0 nM
[17] = biological target: Dual specificity protein kinase TTK (Homo sapiens) (UniProt P33981); conditions: Compound concentration 1000.0 nM
[18] = biological target: Serine/threonine-protein kinase Nek6 (Homo sapiens) (UniProt Q9HC98); conditions: Compound concentration 1000.0 nM
[19] = biological target: Calcium/calmodulin-dependent protein kinase type IV (Homo sapiens) (UniProt Q16566); conditions: Compound concentration 1000.0 nM
[20] = biological target: Mitogen-activated protein kinase kinase kinase 12 (Homo sapiens) (UniProt Q12852); conditions: Compound concentration 1000.0 nM
[21] = biological target: Vascular endothelial growth factor receptor 2 (Homo sapiens) (UniProt P35968); conditions: Compound concentration 1000.0 nM
Vascular endothelial growth factor receptor 2 (Homo sapiens), sequence (P35968 whole entry): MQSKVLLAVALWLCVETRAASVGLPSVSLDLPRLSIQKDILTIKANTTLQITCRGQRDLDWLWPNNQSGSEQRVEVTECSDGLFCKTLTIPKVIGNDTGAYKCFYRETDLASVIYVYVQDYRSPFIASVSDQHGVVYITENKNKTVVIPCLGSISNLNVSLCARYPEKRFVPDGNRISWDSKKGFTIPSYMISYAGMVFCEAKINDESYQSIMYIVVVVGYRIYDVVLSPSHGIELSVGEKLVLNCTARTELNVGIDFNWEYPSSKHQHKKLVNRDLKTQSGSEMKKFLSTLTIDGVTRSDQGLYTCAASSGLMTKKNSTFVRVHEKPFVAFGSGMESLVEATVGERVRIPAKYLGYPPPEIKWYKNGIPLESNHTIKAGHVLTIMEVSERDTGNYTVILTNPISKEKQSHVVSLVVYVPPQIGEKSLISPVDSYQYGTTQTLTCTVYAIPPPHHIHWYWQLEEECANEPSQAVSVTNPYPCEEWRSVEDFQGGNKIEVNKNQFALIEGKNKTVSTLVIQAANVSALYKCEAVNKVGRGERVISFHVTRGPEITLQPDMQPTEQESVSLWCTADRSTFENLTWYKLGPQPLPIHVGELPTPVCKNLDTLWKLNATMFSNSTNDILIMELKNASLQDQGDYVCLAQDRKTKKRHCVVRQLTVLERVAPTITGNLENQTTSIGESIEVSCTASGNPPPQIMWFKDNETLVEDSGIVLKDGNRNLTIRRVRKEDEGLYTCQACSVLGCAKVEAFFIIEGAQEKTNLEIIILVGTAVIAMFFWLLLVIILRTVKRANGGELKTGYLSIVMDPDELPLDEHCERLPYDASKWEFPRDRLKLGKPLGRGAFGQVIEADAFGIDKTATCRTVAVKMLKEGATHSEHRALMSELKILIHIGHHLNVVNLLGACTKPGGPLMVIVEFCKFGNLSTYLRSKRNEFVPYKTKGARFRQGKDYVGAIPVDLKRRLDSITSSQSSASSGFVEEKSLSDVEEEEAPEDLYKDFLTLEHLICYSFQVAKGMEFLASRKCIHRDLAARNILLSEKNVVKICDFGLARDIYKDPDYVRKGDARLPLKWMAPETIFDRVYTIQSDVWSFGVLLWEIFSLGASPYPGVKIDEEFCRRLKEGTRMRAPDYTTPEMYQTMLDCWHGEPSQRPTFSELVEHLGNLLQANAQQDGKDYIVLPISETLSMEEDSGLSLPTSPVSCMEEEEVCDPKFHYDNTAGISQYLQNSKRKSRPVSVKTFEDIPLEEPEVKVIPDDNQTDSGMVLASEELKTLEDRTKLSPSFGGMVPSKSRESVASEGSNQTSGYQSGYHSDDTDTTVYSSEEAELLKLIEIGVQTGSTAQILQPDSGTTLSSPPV

[22] = biological target: RAC-gamma serine/threonine-protein kinase (Homo sapiens) (UniProt Q9Y243); conditions: Compound concentration 1000.0 nM
[23] = biological target: Death-associated protein kinase 2 (Homo sapiens) (UniProt Q9UIK4); conditions: Compound concentration 1000.0 nM
Death-associated protein kinase 2 (Homo sapiens), sequence (Q9UIK4 whole entry, looked up): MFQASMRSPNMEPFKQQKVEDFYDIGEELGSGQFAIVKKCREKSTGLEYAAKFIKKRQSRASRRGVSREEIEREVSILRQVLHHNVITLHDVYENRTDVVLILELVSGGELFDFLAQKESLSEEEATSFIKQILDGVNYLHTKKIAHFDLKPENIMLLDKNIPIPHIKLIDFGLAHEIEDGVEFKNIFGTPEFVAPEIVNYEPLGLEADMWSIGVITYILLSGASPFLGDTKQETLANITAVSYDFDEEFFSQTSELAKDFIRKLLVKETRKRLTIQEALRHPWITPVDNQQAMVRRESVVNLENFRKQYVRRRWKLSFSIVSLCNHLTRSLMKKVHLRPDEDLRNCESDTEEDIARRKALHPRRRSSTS

[24] = biological target: Cyclin-dependent kinase 2 (Homo sapiens) (UniProt P24941); conditions: Compound concentration 1000.0 nM
[25] = test system: Mast/stem cell growth factor receptor Kit (Homo sapiens), P10721 [L576P]; conditions: Compound concentration 1000.0 nM
[26] = test system: eIF-2-alpha kinase GCN2 (Homo sapiens), Q9P2K8 [S808G]; conditions: Compound concentration 1000.0 nM
[27] = biological target: Phosphatidylinositol 4,5-bisphosphate 3-kinase catalytic subunit gamma isoform (Homo sapiens) (UniProt P48736); conditions: Compound concentration 1000.0 nM
[28] = biological target: Bone morphogenetic protein receptor type-2 (Homo sapiens) (UniProt Q13873); conditions: Compound concentration 1000.0 nM
[29] = biological target: 5-hydroxytryptamine receptor 2B (Homo sapiens) (UniProt P41595); conditions: Compound concentration 10.0 uM
[30] = biological target: Substance-P receptor (Homo sapiens) (UniProt P25103); experiment: Inhibition of Tachykinin NK1 at 10 µM in the Eurofins-Panlabs radioligand binding assay (Eurofins_assay_255520); set-up: ligand concentration 0.8 nM; conditions: Compound concentration 10.0 uM
[31] = biological target: Cholecystokinin receptor type A (Homo sapiens) (UniProt P32238); experiment: Inhibition of Cholecystokinin CCK1 (CCKA) at 10 µM in the Eurofins-Panlabs radioligand binding assay (Eurofins_assay_218020); conditions: Compound concentration 10.0 uM
[32] = biological target: GABA-A receptor; anion channel (Rattus norvegicus) (UniProt O09028+P15431+P18506+P18508+P19969+P20236+P23574+P23576+P28471+P28473+P30191+P62813+P63079+P63138+Q91ZM7+Q9ES14); experiment: Inhibition of GABAA, Muscimol, Central at 10 µM in the Eurofins-Panlabs radioligand binding assay (Eurofins_assay_226500); type: protein-complex assay; conditions: Compound concentration 10.0 uM
[33] = biological target: Histamine H1 receptor (Homo sapiens) (UniProt P35367); conditions: Compound concentration 10.0 uM
[34] = biological target: Type-2 angiotensin II receptor (Homo sapiens) (UniProt P50052); conditions: Compound concentration 10.0 uM
[35] = biological target: Delta-type opioid receptor (Homo sapiens) (UniProt P41143); conditions: Compound concentration 10.0 uM
[36] = biological target: Polyunsaturated fatty acid lipoxygenase ALOX15 (Homo sapiens) (UniProt P16050); experiment: Inhibition of Lipoxygenase 15-LO at 10 µM in the Eurofins-Panlabs enzyme assay (Eurofins_assay_138000); conditions: Oryctolagus cuniculus; Compound concentration 10.0 uM

Cyclin-G-associated kinase (Homo sapiens), sequence (O14976 whole entry): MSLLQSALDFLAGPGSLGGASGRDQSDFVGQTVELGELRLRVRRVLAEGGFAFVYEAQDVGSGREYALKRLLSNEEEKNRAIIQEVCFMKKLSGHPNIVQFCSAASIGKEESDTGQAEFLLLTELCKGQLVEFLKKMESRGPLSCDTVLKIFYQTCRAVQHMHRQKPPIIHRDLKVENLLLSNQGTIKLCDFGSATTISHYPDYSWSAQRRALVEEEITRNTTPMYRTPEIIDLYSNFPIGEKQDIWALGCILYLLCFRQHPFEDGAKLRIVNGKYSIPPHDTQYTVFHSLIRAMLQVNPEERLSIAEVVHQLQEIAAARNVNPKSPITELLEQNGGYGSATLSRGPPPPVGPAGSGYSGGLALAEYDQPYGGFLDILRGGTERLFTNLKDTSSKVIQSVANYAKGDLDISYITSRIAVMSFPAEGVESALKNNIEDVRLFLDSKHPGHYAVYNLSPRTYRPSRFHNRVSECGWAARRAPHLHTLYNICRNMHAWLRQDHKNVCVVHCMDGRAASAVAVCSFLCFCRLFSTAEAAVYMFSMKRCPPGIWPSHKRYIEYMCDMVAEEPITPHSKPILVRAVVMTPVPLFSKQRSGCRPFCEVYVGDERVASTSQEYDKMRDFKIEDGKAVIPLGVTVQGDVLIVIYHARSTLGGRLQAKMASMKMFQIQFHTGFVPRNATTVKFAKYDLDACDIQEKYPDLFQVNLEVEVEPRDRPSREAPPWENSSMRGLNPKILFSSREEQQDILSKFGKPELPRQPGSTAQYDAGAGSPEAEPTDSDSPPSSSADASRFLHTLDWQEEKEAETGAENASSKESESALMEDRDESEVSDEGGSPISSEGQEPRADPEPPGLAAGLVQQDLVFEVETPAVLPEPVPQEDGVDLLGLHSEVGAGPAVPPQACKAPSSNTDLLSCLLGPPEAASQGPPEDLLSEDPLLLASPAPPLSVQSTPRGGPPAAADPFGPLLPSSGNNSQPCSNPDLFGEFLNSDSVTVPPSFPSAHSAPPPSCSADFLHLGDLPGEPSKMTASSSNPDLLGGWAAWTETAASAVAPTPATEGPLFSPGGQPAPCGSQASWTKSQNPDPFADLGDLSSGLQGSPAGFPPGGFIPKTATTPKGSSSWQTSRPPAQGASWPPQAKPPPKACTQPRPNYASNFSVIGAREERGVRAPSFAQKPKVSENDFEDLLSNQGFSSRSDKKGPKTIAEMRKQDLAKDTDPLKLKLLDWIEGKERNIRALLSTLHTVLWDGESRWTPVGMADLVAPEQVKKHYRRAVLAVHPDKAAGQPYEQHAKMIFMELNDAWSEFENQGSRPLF
Sigma intracellular receptor 2, sequence (Q5BJF2 whole entry): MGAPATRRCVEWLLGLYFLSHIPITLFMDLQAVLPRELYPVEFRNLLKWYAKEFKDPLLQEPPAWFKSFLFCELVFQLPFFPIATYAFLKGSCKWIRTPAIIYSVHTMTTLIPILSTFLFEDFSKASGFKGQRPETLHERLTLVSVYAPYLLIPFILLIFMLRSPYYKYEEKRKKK

Structure (SMILES)	Ki [1]	residual activity [2]	residual activity [3]	residual activity [4]	residual activity [5]	residual activity [6]	residual activity [8]	residual activity [9]	residual activity [10]	residual activity [11]	inhibition [12]	residual activity [13]	residual activity [14]	residual activity [15]	residual activity [16]	residual activity [17]	residual activity [18]	residual activity [19]	residual activity [20]	residual activity [21]	also measured
O=C(NCc1ncc(C(F)(F)F)cc1Cl)c1ccc2c(c1)C1(CCS(=O)(=O)CC1)[C@@H](C1CC1)N2S(=O)(=O)c1ccc(F)cc1 [BAY-786]	2000 nM	96%	90%	91%	84%	57%	77%	100%	84%	100%	-1.68%	81%	74%	89%	97%	100%	95%	71%	87%	80%	inhibition [7]: -4.64%; residual activity [22]: 86%; residual activity [23]: 90%; residual activity [24]: 100%; residual activity [25]: 76%; residual activity [26]: 100%; residual activity [27]: 95%; residual activity [28]: 73%
O=C(NCc1ncc(C(F)(F)F)cc1Cl)c1ccc2c(c1)C1(CCS(=O)(=O)CC1)[C@H](C1CC1)N2S(=O)(=O)c1ccc(F)cc1 [BAY-784]	1110 nM	97%	95%	98%	100%	70%	100%	100%	91%	89%	13.5%	92%	77%	100%	100%	78%	100%	86%	82%	83%	inhibition [29]: 4%; inhibition [30]: 26%; inhibition [31]: -3%; inhibition [32]: 7%; inhibition [33]: 9%; residual activity [22]: 100%; residual activity [23]: 99%; residual activity [24]: 85%; inhibition [34]: -5%; residual activity [25]: 100%; residual activity [26]: 88%; residual activity [27]: 82%; inhibition [35]: 5%; inhibition [36]: 11%; residual activity [28]: 80%

From ChEMBL document CHEMBL4507266, “Data for DCP probe BAY-784” (2021)
